Reference: US20230414626A1, “INDUCTION OF FERROPTOSIS FOR CANCER THERAPY” (Memorial Sloan Kettering Cancer Center, priority 2020, published 2023)

How the values were obtained:
Assay type in all cases: cell-based, human
NRF2 = experiment: Western blot of NRF2; conditions: BT474 cells, 8 h; RSL3 0.5 μM; Torin 1 μM
Protocol: FIG. 3 A-E. NRF2 is not the major mediator of the ferroptosis-suppressing activity of mTORC1. (A) BT474 cells were treated as indicated for 8 h. RSL3, 0.5 μM; Torin, 1 μM. Western blot was performed to measure […], total S6K and NRF2. (B) NRF2 was depleted by CRISPR/Cas9 technology in HT1080 cells. NRF2 level was measured by western blot. (C) Control or NRF2-depleted cells were treated as indicated. Erastin, 0.5 μM; RSL3, 25 nM. (D) HepG2 cells with or without NRF2 depletion were treated with cysteine starvation with or without CCI-779 (0.5 μM) as indicated. Sytox Green were added after 48 h for cell death staining (scale bar, 100 m). (E) PC-3 cells with or without NRF2 depletion were treated with cysteine starvation with or without CCI-779 (0.5 μM) as indicated. Sytox Green were added after 48 h for cell death staining (scale bar, 100 m).
Cell lysates were resolved on SDS-PAGE gels and transferred to a nitrocellulose membranes. The membranes were incubated in 5% skim milk for 1 hour at room temperature and then incubated with primary antibodies diluted in blocking buffer at 4° C. overnight. […]

SREBF1-knockout cells = experiment: Cell death in SREBF1-knockout cells; conditions: SREBF1-knockout MDA-MB-453 and BT474 cells; Torin 1 μM; GDC-0941 2 μM; MK-2206 2 μM; CCI-779 0.5 μM
Protocol: FIG. 9 A-F. SREBP1 protects cells from ferroptosis. (A) MCF7 cells were treated as indicated. RSL3, 5 μM; CCI-779, 0.5 μM. Cell lysates were collected 24 h after treatment for Western blot detecting […], total S6K, SREBP1(P) and SREBP1(m). (B) Cells were pretreated with 5 μM Fatostatin A overnight and treated as indicated. RSL3, 0.5 μM for BT474 cells, 1 μM for MDA-MB-453 and 5 μM for MCF7 cells; Fer-1, 1 μM. (C) Efficiency of SREBF1 Knockout in BT474, MDA-MB-453, and MCF7 cells was monitored by western blot. (D) MCF7 cells were treated as indicated. RSL3, 5 μM; Fer-1, 1 μM. (E) Cells were treated as indicated. RSL3, 1 μM for MDA-MB-453 cells and 0.5 μM for BT474 cells; Fer-1, 1 μM; Torin, 1 μM; GDC-0941, 2 μM; MK-2206, 2 μM; CCI-779, 0.5 μM. (F) SREBP1m was overexpressed in MCF7, MDA-MB-453 and A549 cells and determined by western blot. Cells were treated as indicated. RSL3, 5 μM for MCF7 cells, 0.5 μM for MDA-MB-453 cells and 0.25 μM for A549 cells; CCI-779, 0.5 μM.
Cells were seeded in plates at appropriate cell density and incubated overnight at 37° C. containing 5% C02, and then subjected to treatments as described in individual experiments. Cells were stained with hoechst 33342 (0.1 μg/ml) to monitor total cell number, and with Sytox Green (5 nM) to monitor cell death. Culture plates were read by Cytation 5 at indicated time points. Percentage of cell death was calculated as Sytox Green-positive cell number over total cell number. For 3D spheroids, cell viability was determined a commercially available cell viability assay (Promega, Madison, WI, USA) following the manufacturer's instructions. Viability was calculated by normalizing ATP levels of samples to that of negative controls (spheroids in normal full media without treatment).
Keap1, NRF2 and SREBP1 depleted cells were generated with a CRISPR/Cas9-mediated knockout system. sgRNA sequences were cloned into LentiCRISPRV2. SCD1 depleted cells were generated with CRISPR/Cas9 mediated knockout system, using stable Cas9 expression cells and sanger CRISPR clone. […]

SREBP1 (SREBP1m) = experiment: Western blot of mature SREBP1; conditions: RSL3-resistant cancer cells (BT474, MDA-MB-453, MCF7); CCI-779 0.5 μM
Protocol: FIG. 4 A-F. mTORC1 activation suppresses ferroptosis by upregulating SREBP1. (A) BT474 and MDA-MB-453 cells were treated as indicated. RSL3, 0.5 μM; CCI-779, 0.5 μM. Cell lysates were collected after 8 h and 24 h of treatment for BT474 cells and MDA-MB-453 cells, respectively, for western blot detecting […], total S6K, unprocessed SREBP1 (SREBP1(p)) and processed, mature SREBP1 (SREBP1(m)). (B) Cells were treated as indicated. RSL3, 0.5 μM for BT474 cells and 1 μM for MDA-MB-453 cells; Fer-1, 1 μM. (C) Cells were treated as in panel B. Lipid peroxidation was measured. (D) 3D spheroids derived from BT474 cells harboring control or SREBF1 sgRNA were treated as indicated. CCI-779, 0.5 μM; RSL3, 0.5 μM; Fer-1, 1 μM. Top, cell death stained by Sytox Green (scale bar, 100 μm). Bottom, cell viability. (E) SREBP1m was overexpressed in BT474 cells and determined by western blot. Cells were treated as indicated. RSL3, 0.5 μM; CCI-779, 0.5 μM. Cell death was measured (bottom panel). (F) 3D spheroids derived from BT474 cells were treated as indicated. RSL3, 0.5 μM; CCI-779, 0.5 μM; Fer-1, 1 μM. Top, cell death stained by Sytox Green (scale bar, 100 m). […]
FIG. 9 A-F. SREBP1 protects cells from ferroptosis. […] (C) Efficiency of SREBF1 Knockout in BT474, MDA-MB-453, and MCF7 cells was monitored by western blot. […] (F) SREBP1m was overexpressed in MCF7, MDA-MB-453 and A549 cells and determined by western blot. […]

SMILES	RSL3-induced NRF2 accumulation (NRF2)	further enhancement of RSL3-induced ferroptosis (SREBF1-knockout cells)	level of the mature form of SREBP1 (SREBP1m) (SREBP1 (SREBP1m))
CCC(=O)N1CCN(c2ccc(-n3c(=O)ccc4cnc5ccc(-c6cnc7ccccc7c6)cc5c43)cc2C(F)(F)F)CC1 [Torin]	ablated	failed to further enhance RSL3-induced ferroptosis	
NC1(c2ccc(-c3nc4ccn5c(=O)[nH]nc5c4cc3-c3ccccc3)cc2)CCC1 [MK-2206]		failed to further enhance RSL3-induced ferroptosis	
CS(=O)(=O)N1CCN(Cc2cc3nc(-c4cccc5[nH]ncc45)nc(N4CCOCC4)c3s2)CC1 [GDC-0941]		failed to further enhance RSL3-induced ferroptosis	
CO[C@H]1C[C@@H]2CC[C@@H](C)[C@@](O)(O2)C(=O)C(=O)N2CCCC[C@H]2C(=O)O[C@H]([C@H](C)C[C@@H]2CC[C@@H](OC(=O)C(C)(CO)CO)[C@H](OC)C2)CC(=O)[C@H](C)/C=C(\C)[C@@H](O)[C@@H](OC)C(=O)[C@H](C)C[C@H](C)/C=C/C=C/C=C/1C [CCI-779, Temsirolimus]		failed to further enhance RSL3-induced ferroptosis	decreased
